# Reference: ChEMBL document CHEMBL1139682, “Synthesis and biological evaluation of technetium-99m-labeled deoxyglucose derivatives as imaging agents for tumor” (Bioorg Med Chem Lett, 2006)
# Columns and labels:
# [1] = Ratio of uptake in tumor to muscle of TA2 mouse bearing MA891 xenograft after 2 hrs; type: ADME; conditions: in vivo
# [2] = Biodistribution in blood of TA2 mouse bearing MA891 xenograft after 2 hrs; type: ADME, organism-based; conditions: read-out: Drug uptake
# [3] = Biodistribution in blood of TA2 mouse bearing MA891 xenograft after 4 hrs; type: ADME, organism-based; conditions: read-out: Drug uptake
# [4] = Biodistribution in heart of TA2 mouse bearing MA891 xenograft after 2 hrs; type: ADME, organism-based; conditions: read-out: Drug uptake
# [5] = Biodistribution in intestine of TA2 mouse bearing MA891 xenograft after 2 hrs; type: ADME, organism-based; conditions: read-out: Drug uptake
# [6] = Biodistribution in brain of TA2 mouse bearing MA891 xenograft after 30 mins; type: ADME, organism-based; conditions: read-out: Drug uptake
# [7] = Biodistribution in intestine of TA2 mouse bearing MA891 xenograft after 4 hrs; type: ADME, organism-based; conditions: read-out: Drug uptake
# [8] = Biodistribution in muscle of TA2 mouse bearing MA891 xenograft after 30 mins; type: ADME, organism-based, Muscle tissue; conditions: read-out: Drug uptake
# [9] = Biodistribution in brain of TA2 mouse bearing MA891 xenograft after 2 hrs; type: ADME, organism-based; conditions: read-out: Drug uptake
# [10] = Biodistribution in liver of TA2 mouse bearing MA891 xenograft after 4 hrs; type: ADME, organism-based; conditions: read-out: Drug uptake
# [11] = Biodistribution in liver of TA2 mouse bearing MA891 xenograft after 2 hrs; type: ADME, organism-based; conditions: read-out: Drug uptake
# [12] = Biodistribution in tumor of TA2 mouse bearing MA891 xenograft after 4 hrs; type: ADME, organism-based; conditions: read-out: Drug uptake
# [13] = Biodistribution in spleen of TA2 mouse bearing MA891 xenograft after 4 hrs; type: ADME, organism-based; conditions: read-out: Drug uptake
# [14] = Biodistribution in blood of TA2 mouse bearing MA891 xenograft after 30 mins; type: ADME, organism-based; conditions: read-out: Drug uptake
# [15] = Biodistribution in brain of TA2 mouse bearing MA891 xenograft after 4 hrs; type: ADME, organism-based; conditions: read-out: Drug uptake
# [16] = Ratio of uptake in tumor to muscle of TA2 mouse bearing MA891 xenograft after 30 mins; type: ADME; conditions: in vivo, 0.5 h
# [17] = Biodistribution in lung of TA2 mouse bearing MA891 xenograft after 4 hrs; type: ADME, organism-based; conditions: read-out: Drug uptake
# [18] = Biodistribution in stomach of TA2 mouse bearing MA891 xenograft after 30 mins; type: ADME, organism-based; conditions: read-out: Drug uptake
# [19] = Biodistribution in tumor of TA2 mouse bearing MA891 xenograft after 30 mins; type: ADME, organism-based; conditions: read-out: Drug uptake
# [20] = Biodistribution in stomach of TA2 mouse bearing MA891 xenograft after 4 hrs; type: ADME, organism-based; conditions: read-out: Drug uptake
# [21] = Biodistribution in kidney of TA2 mouse bearing MA891 xenograft after 4 hrs; type: ADME, organism-based; conditions: read-out: Drug uptake
# [22] = Biodistribution in intestine of TA2 mouse bearing MA891 xenograft after 30 mins; type: ADME, organism-based; conditions: read-out: Drug uptake
# [23] = Biodistribution in lung of TA2 mouse bearing MA891 xenograft after 30 mins; type: ADME, organism-based; conditions: read-out: Drug uptake
# [24] = Ratio of uptake in tumor to muscle of TA2 mouse bearing MA891 xenograft after 4 hrs; type: ADME; conditions: in vivo
# [25] = Ratio of uptake in tumor to […] of TA2 mouse bearing MA891 xenograft after 30 mins; type: ADME; conditions: in vivo, 0.5 h
# [26] = Biodistribution in kidney of TA2 mouse bearing MA891 xenograft after 2 hrs; type: ADME, organism-based; conditions: read-out: Drug uptake
# [27] = Biodistribution in heart of TA2 mouse bearing MA891 xenograft after 30 mins; type: ADME, organism-based; conditions: read-out: Drug uptake
# [28] = Ratio of uptake in tumor to blood of TA2 mouse bearing MA891 xenograft after 2 hrs; type: ADME
# [29] = Ratio of uptake in tumor to […] of TA2 mouse bearing MA891 xenograft after 4 hrs; type: ADME; conditions: in vivo
# [30] = Biodistribution in kidney of TA2 mouse bearing MA891 xenograft after 30 mins; type: ADME, organism-based; conditions: read-out: Drug uptake
# [31] = Biodistribution in muscle of TA2 mouse bearing MA891 xenograft after 2 hrs; type: ADME, organism-based, Muscle tissue; conditions: read-out: Drug uptake
# [32] = Partition coefficient, log P of the compound; type: physicochemical; conditions: octanol/water
# [33] = Biodistribution in heart of TA2 mouse bearing MA891 xenograft after 4 hrs; type: ADME, organism-based; conditions: read-out: Drug uptake
# [34] = Biodistribution in tumor of TA2 mouse bearing MA891 xenograft after 2 hrs; type: ADME, organism-based; conditions: read-out: Drug uptake
# [35] = Biodistribution in stomach of TA2 mouse bearing MA891 xenograft after 2 hrs; type: ADME, organism-based; conditions: read-out: Drug uptake
# [36] = Biodistribution in liver of TA2 mouse bearing MA891 xenograft after 30 mins; type: ADME, organism-based; conditions: read-out: Drug uptake
# [37] = Biodistribution in spleen of TA2 mouse bearing MA891 xenograft after 30 mins; type: ADME, organism-based; conditions: read-out: Drug uptake
# [38] = Biodistribution in muscle of TA2 mouse bearing MA891 xenograft after 4 hrs; type: ADME, organism-based, Muscle tissue; conditions: read-out: Drug uptake
# [39] = Biodistribution in lung of TA2 mouse bearing MA891 xenograft after 2 hrs; type: ADME, organism-based; conditions: read-out: Drug uptake
# [40] = Biodistribution in spleen of TA2 mouse bearing MA891 xenograft after 2 hrs; type: ADME, organism-based; conditions: read-out: Drug uptake
compound,measurement,setting,value
CSCC(=O)NC1[C@H](O)O[C@H](CO)[C@@H](O)[C@@H]1O (stereo not given in full),Ratio,[1],2.85
same,tissue uptake at 2 h,[2],2.22 %ID/g
same,tissue uptake at 4 h,[3],1.29 %ID/g
same,tissue uptake at 2 h,[4],0.57 %ID/g
same,tissue uptake at 2 h,[5],4.07 %ID/g
same,tissue uptake at 0.5 h,[6],0.11 %ID/g
same,tissue uptake at 4 h,[7],1.29 %ID/g
same,tissue uptake at 0.5 h,[8],0.51 %ID/g
same,tissue uptake at 2 h,[9],0.07 %ID/g
same,tissue uptake at 4 h,[10],4.18 %ID/g
same,tissue uptake at 2 h,[11],4.75 %ID/g
same,tissue uptake at 4 h,[12],1.06 %ID/g
same,tissue uptake at 4 h,[13],1.6 %ID/g
same,tissue uptake at 0.5 h,[14],3.32 %ID/g
same,tissue uptake at 4 h,[15],0.04 %ID/g
same,Ratio,[16],3.2
same,tissue uptake at 4 h,[17],0.98 %ID/g
same,tissue uptake at 0.5 h,[18],3.69 %ID/g
same,tissue uptake at 0.5 h,[19],1.53 %ID/g
same,tissue uptake at 4 h,[20],1.41 %ID/g
same,tissue uptake at 4 h,[21],13.2 %ID/g
same,tissue uptake at 0.5 h,[22],2.24 %ID/g
same,tissue uptake at 0.5 h,[23],2.73 %ID/g
same,Ratio,[24],3.29
same,Ratio,[25],0.47
same,tissue uptake at 2 h,[26],10.8 %ID/g
same,tissue uptake at 0.5 h,[27],0.9 %ID/g
same,Kp at 2 h,[28],0.59
same,Ratio,[29],0.82
same,tissue uptake at 0.5 h,[30],8.8 %ID/g
same,tissue uptake at 2 h,[31],0.45 %ID/g
same,logP,[32],-2.92
same,tissue uptake at 4 h,[33],0.38 %ID/g
same,tissue uptake at 2 h,[34],1.25 %ID/g
same,tissue uptake at 2 h,[35],3.17 %ID/g
same,tissue uptake at 0.5 h,[36],5.9 %ID/g
same,tissue uptake at 0.5 h,[37],1.81 %ID/g
same,tissue uptake at 4 h,[38],0.33 %ID/g
same,tissue uptake at 2 h,[39],1.48 %ID/g
same,tissue uptake at 2 h,[40],1.36 %ID/g
